{"source": "paper PMC10838953", "key": {"TBK1": {"biological_target": "TBK1 (Homo sapiens, UniProt Q9UHD2)", "assay": "biochemical", "conditions": "read-out: %Ctrl @ 2000nM"}, "PYK2": {"biological_target": "PYK2 (Homo sapiens, UniProt Q14289)", "assay": "biochemical", "conditions": "read-out: %Ctrl @ 2000nM"}, "WNK3": {"biological_target": "WNK3 (Homo sapiens, UniProt Q9BYP7)", "assay": "biochemical", "conditions": "read-out: %Ctrl @ 2000nM"}, "MEK2": {"biological_target": "MEK2 (Homo sapiens, UniProt P36507)", "sequence (P36507 whole entry)": "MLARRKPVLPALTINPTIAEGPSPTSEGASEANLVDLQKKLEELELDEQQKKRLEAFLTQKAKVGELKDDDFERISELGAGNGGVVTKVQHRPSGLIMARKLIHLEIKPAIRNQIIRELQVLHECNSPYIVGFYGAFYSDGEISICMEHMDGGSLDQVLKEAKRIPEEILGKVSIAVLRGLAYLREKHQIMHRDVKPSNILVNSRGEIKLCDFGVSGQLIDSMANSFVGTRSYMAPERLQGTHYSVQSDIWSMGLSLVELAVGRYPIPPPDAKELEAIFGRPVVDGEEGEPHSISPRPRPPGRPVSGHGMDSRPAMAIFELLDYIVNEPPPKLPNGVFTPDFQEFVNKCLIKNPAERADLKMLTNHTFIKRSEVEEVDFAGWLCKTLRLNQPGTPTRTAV", "assay": "biochemical", "conditions": "read-out: %Ctrl @ 2000nM"}, "DLK": {"biological_target": "DLK (Homo sapiens, UniProt Q12852)", "assay": "biochemical", "conditions": "read-out: %Ctrl @ 2000nM"}, "BTK": {"biological_target": "BTK (Homo sapiens, UniProt Q06187)", "assay": "biochemical", "conditions": "read-out: %Ctrl @ 2000nM"}, "MARK1": {"biological_target": "MARK1 (Homo sapiens, UniProt Q9P0L2)", "assay": "biochemical", "conditions": "read-out: %Ctrl @ 2000nM"}, "EGFR(T790M)": {"biological_target": "EGFR(T790M) (Homo sapiens, UniProt P00533, T790M)", "assay": "biochemical", "conditions": "read-out: %Ctrl @ 2000nM"}, "KIT(D816H)": {"biological_target": "KIT(D816H) (Homo sapiens, UniProt P10721, D816H)", "assay": "biochemical", "conditions": "read-out: %Ctrl @ 2000nM"}, "CAMK2G": {"biological_target": "CAMK2G (Homo sapiens, UniProt Q13555)", "assay": "biochemical", "conditions": "read-out: %Ctrl @ 2000nM"}, "RET(V804M)": {"biological_target": "RET(V804M) (Homo sapiens, UniProt P07949, V804M)", "sequence (P07949 29-1114 V804M)": "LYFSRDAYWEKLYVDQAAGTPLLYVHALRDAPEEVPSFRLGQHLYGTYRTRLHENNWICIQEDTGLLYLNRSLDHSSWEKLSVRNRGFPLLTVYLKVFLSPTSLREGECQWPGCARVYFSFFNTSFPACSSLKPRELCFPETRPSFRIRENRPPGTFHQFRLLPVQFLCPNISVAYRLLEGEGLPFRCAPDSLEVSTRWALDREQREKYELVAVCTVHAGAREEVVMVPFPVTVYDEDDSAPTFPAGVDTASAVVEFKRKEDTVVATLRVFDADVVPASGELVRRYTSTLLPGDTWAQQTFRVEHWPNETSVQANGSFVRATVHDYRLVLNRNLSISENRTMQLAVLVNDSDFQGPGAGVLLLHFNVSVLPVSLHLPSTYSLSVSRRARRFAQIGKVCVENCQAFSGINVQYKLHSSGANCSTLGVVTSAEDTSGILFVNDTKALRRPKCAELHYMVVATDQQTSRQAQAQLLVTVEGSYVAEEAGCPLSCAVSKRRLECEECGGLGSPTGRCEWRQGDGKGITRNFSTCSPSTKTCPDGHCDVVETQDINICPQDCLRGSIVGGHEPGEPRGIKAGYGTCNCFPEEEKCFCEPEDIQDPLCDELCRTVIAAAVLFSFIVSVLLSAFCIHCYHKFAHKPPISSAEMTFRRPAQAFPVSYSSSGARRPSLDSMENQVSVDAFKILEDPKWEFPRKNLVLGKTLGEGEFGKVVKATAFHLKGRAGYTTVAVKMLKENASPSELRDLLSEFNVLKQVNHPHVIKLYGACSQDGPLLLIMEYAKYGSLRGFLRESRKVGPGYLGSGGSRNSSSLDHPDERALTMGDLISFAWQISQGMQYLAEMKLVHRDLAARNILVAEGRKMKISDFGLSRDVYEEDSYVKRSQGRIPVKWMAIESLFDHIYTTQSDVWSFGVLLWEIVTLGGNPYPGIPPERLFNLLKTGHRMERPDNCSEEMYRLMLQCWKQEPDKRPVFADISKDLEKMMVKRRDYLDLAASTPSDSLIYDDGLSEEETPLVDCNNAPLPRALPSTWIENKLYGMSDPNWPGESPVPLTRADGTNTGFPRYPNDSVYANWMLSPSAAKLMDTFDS", "assay": "biochemical", "conditions": "read-out: %Ctrl @ 2000nM"}, "HIPK1": {"biological_target": "HIPK1 (Homo sapiens, UniProt Q86Z02)", "assay": "biochemical", "conditions": "read-out: %Ctrl @ 2000nM"}, "[1]": {"tested_on": "AKT (S129) in 786-O cells"}, "EGFR(L858R)": {"biological_target": "EGFR(L858R) (Homo sapiens, UniProt P00533, L858R)", "assay": "biochemical", "conditions": "read-out: %Ctrl @ 2000nM"}, "PDGFRB": {"biological_target": "PDGFRB (Homo sapiens, UniProt P09619)", "assay": "biochemical", "conditions": "read-out: %Ctrl @ 2000nM"}, "ROCK1": {"biological_target": "ROCK1 (Homo sapiens, UniProt Q13464)", "assay": "biochemical", "conditions": "read-out: %Ctrl @ 2000nM"}, "MST1R": {"biological_target": "MST1R (Homo sapiens, UniProt Q04912)", "assay": "biochemical", "conditions": "read-out: %Ctrl @ 2000nM"}, "PIM2": {"biological_target": "PIM2 (Homo sapiens, UniProt Q9P1W9)", "assay": "biochemical", "conditions": "read-out: %Ctrl @ 2000nM"}, "ROS1": {"biological_target": "ROS1 (Homo sapiens, UniProt P08922)", "assay": "biochemical", "conditions": "read-out: %Ctrl @ 2000nM"}, "FAK": {"biological_target": "FAK (Homo sapiens, UniProt Q05397)", "assay": "biochemical", "conditions": "read-out: %Ctrl @ 2000nM"}, "TSSK1B": {"biological_target": "TSSK1B (Homo sapiens, UniProt Q9BXA7)", "sequence (Q9BXA7 whole entry)": "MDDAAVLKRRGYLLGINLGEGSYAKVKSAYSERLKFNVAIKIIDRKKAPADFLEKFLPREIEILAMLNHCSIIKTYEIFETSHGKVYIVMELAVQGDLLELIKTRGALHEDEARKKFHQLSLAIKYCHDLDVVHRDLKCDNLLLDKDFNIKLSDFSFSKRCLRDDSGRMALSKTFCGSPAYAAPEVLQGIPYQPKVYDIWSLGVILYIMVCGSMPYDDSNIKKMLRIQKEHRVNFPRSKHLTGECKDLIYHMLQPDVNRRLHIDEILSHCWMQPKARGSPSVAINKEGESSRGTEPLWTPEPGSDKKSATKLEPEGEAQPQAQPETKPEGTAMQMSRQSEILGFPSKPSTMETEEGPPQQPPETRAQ", "assay": "biochemical", "conditions": "read-out: %Ctrl @ 2000nM"}, "MAST1": {"biological_target": "MAST1 (Homo sapiens, UniProt Q9Y2H9)", "assay": "biochemical", "conditions": "read-out: %Ctrl @ 2000nM"}, "RIOK1": {"biological_target": "RIOK1 (Homo sapiens, UniProt Q9BRS2)", "assay": "biochemical", "conditions": "read-out: %Ctrl @ 2000nM"}, "INSR": {"biological_target": "INSR (Homo sapiens, UniProt P06213)", "assay": "biochemical", "conditions": "read-out: %Ctrl @ 2000nM"}, "CAMK2A": {"biological_target": "CAMK2A (Homo sapiens, UniProt Q9UQM7)", "sequence (Q9UQM7 whole entry)": "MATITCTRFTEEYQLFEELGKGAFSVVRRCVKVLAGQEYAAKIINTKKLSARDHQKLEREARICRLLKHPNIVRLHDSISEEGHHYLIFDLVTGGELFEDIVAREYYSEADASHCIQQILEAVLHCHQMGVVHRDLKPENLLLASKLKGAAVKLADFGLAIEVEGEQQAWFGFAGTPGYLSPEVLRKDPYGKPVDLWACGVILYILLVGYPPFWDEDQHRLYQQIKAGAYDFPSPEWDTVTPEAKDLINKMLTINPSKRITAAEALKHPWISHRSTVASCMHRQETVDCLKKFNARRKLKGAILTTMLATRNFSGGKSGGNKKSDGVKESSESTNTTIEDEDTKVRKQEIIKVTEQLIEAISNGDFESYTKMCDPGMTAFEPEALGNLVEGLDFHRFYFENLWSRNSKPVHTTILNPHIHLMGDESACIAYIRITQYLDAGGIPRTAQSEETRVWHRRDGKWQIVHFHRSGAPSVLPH", "assay": "biochemical", "conditions": "read-out: %Ctrl @ 2000nM"}, "FGR": {"biological_target": "FGR (Homo sapiens, UniProt P09769)", "assay": "biochemical", "conditions": "read-out: %Ctrl @ 2000nM"}, "NEK11": {"biological_target": "NEK11 (Homo sapiens, UniProt Q8NG66)", "assay": "biochemical", "conditions": "read-out: %Ctrl @ 2000nM"}, "786-O cells": {"tested_on": "786-O cells", "conditions": "48 h"}, "MST3": {"biological_target": "MST3 (Homo sapiens, UniProt Q9Y6E0)", "assay": "biochemical", "conditions": "read-out: %Ctrl @ 2000nM"}, "MYO3B": {"biological_target": "MYO3B (Homo sapiens, UniProt Q8WXR4)", "assay": "biochemical", "conditions": "read-out: %Ctrl @ 2000nM"}, "CDK3": {"biological_target": "CDK3 (Homo sapiens, UniProt Q00526)", "sequence (Q00526 whole entry)": "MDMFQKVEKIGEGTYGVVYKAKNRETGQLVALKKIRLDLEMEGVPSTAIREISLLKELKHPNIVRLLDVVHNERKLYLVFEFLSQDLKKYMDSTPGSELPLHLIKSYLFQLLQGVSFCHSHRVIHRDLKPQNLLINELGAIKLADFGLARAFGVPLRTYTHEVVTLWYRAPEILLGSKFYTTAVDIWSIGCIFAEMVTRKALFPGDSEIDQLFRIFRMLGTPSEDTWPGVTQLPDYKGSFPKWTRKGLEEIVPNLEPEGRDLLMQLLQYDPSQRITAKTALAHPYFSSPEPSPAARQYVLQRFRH", "assay": "biochemical", "conditions": "read-out: %Ctrl @ 2000nM"}, "TGFBR2": {"biological_target": "TGFBR2 (Homo sapiens, UniProt P37173)", "sequence (P37173 23-567)": "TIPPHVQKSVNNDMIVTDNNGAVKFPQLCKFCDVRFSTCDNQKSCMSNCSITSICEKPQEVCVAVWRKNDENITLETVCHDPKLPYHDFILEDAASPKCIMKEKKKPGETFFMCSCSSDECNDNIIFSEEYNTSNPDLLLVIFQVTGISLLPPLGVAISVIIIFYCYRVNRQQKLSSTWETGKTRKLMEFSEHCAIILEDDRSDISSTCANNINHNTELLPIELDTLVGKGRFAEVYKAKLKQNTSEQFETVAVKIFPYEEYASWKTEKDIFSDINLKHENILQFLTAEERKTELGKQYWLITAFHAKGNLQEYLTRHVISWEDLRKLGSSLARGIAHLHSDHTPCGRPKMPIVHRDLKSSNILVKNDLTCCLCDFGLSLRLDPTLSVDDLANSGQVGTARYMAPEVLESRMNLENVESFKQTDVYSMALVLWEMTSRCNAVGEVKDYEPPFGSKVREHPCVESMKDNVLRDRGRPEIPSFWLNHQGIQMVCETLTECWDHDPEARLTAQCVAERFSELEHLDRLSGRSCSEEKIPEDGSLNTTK", "assay": "biochemical", "conditions": "read-out: %Ctrl @ 2000nM"}, "ERBB4": {"biological_target": "ERBB4 (Homo sapiens, UniProt Q15303)", "assay": "biochemical", "conditions": "read-out: %Ctrl @ 2000nM"}, "PKN2": {"biological_target": "PKN2 (Homo sapiens, UniProt Q16513)", "sequence (Q16513 whole entry)": "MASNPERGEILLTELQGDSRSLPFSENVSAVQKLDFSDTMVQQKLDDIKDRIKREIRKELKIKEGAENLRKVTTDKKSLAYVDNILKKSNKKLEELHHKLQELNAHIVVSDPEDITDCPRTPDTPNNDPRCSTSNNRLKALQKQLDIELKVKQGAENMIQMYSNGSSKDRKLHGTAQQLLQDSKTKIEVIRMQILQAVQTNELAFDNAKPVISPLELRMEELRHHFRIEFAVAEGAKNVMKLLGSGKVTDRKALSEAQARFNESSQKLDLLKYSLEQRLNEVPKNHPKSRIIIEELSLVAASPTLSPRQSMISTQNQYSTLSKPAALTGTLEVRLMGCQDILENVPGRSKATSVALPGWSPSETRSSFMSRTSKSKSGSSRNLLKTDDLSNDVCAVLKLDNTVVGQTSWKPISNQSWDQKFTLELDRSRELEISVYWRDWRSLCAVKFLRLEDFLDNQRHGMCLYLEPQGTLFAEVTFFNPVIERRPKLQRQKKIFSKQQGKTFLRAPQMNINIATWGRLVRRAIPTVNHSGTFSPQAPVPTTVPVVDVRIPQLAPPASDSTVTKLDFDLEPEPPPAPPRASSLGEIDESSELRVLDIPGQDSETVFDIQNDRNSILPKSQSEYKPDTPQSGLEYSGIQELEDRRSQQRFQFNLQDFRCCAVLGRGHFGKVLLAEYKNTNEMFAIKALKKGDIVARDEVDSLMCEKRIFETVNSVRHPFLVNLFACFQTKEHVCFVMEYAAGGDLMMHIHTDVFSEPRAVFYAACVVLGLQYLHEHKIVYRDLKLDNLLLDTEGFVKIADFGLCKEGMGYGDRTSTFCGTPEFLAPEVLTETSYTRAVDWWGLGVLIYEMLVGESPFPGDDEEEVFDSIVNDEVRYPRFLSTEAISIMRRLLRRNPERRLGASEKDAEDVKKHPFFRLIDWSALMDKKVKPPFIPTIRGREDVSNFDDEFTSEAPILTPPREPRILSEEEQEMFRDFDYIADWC", "assay": "biochemical", "conditions": "read-out: %Ctrl @ 2000nM"}, "PCTK2": {"biological_target": "PCTK2 (Homo sapiens, UniProt Q00537)", "assay": "biochemical", "conditions": "read-out: %Ctrl @ 2000nM"}, "CDK4-cyclinD1": {"biological_target": "CDK4-cyclinD1 (Homo sapiens, UniProt P11802)", "assay": "biochemical", "conditions": "read-out: %Ctrl @ 2000nM"}, "MINK": {"biological_target": "MINK (Homo sapiens, UniProt Q8N4C8)", "assay": "biochemical", "conditions": "read-out: %Ctrl @ 2000nM"}, "ULK2": {"biological_target": "ULK2 (Homo sapiens, UniProt Q8IYT8)", "assay": "biochemical", "conditions": "read-out: %Ctrl @ 2000nM"}, "PRKCH": {"biological_target": "PRKCH (Homo sapiens, UniProt P24723)", "assay": "biochemical", "conditions": "read-out: %Ctrl @ 2000nM"}, "BMPR1A": {"biological_target": "BMPR1A (Homo sapiens, UniProt P36894)", "sequence (P36894 24-532)": "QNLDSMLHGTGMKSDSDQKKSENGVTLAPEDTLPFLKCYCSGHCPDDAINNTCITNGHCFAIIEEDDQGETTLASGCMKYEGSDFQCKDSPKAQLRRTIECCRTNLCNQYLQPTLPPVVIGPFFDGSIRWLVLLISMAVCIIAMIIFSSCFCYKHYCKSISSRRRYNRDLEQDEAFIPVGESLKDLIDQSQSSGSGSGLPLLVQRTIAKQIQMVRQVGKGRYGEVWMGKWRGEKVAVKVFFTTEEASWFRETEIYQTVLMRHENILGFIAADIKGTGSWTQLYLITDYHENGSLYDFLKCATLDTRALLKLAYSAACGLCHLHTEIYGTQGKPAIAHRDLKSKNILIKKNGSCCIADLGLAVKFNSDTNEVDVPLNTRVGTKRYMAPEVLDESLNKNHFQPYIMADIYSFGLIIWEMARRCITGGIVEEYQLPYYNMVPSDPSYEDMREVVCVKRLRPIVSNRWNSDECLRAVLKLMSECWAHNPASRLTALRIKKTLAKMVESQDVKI", "assay": "biochemical", "conditions": "read-out: %Ctrl @ 2000nM"}, "[2]": {"biological_target": "ABL1(T315I)-nonphosphorylated (Homo sapiens, UniProt P00519, T315I)", "assay": "biochemical", "conditions": "read-out: %Ctrl @ 2000nM"}, "CSNK2A2 (CK2α′)": {"biological_target": "CSNK2A2 (CK2α′) (Homo sapiens, UniProt P19784)", "sequence (P19784 whole entry)": "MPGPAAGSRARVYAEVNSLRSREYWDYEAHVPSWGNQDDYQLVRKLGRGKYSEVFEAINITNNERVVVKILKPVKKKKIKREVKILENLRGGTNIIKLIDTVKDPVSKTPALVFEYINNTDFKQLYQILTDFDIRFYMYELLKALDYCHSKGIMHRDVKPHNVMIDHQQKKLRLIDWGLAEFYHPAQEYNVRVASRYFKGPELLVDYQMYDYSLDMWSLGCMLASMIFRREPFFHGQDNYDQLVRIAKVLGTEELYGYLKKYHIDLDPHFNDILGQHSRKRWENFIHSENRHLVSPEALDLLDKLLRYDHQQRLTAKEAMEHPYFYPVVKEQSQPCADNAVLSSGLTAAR", "assay": "biochemical"}}, "note": "“And” between values parts separate entries of the source, which are not always exact repeats. Equal entries are not always repeated."}
{"smiles": "CC(C)COC(=O)c1[nH]c2ccc(F)cc2c1-c1cn(CC2CCN(CCNS(=O)(=O)c3ccc(CC(C)C)cc3)CC2)nn1", "note": "[AB668, isobutyl 5-fluoro-3-(1-((1-(2-((4-isobutylphenyl)sulfonamido)ethyl)piperidin-4-yl)methyl)-1H-1,2,3-triazol-4-yl)-1H-indole-2-carboxylate]", "values": [{"measurement": "remaining activity at 2 µM", "setting": "TBK1", "result": 87, "unit": "%"}, {"measurement": "remaining activity at 2 µM", "setting": "PYK2", "result": 95, "unit": "%"}, {"measurement": "remaining activity at 2 µM", "setting": "WNK3", "result": 98, "unit": "%"}, {"measurement": "remaining activity at 2 µM", "setting": "MEK2", "result": 96, "unit": "%"}, {"measurement": "remaining activity at 2 µM", "setting": "DLK", "result": 83, "unit": "%"}, {"measurement": "remaining activity at 2 µM", "setting": "BTK", "result": 100, "unit": "%"}, {"measurement": "remaining activity at 2 µM", "setting": "MARK1", "result": 79, "unit": "%"}, {"measurement": "remaining activity at 2 µM", "setting": "EGFR(T790M)", "result": 89, "unit": "%"}, {"measurement": "remaining activity at 2 µM", "setting": "KIT(D816H)", "result": 58, "unit": "%"}, {"measurement": "remaining activity at 2 µM", "setting": "CAMK2G", "result": 78, "unit": "%"}, {"measurement": "remaining activity at 2 µM", "setting": "RET(V804M)", "result": 76, "unit": "%"}, {"measurement": "remaining activity at 2 µM", "setting": "HIPK1", "result": 100, "unit": "%"}, {"measurement": "pAKTS129 / AKT band quantification", "setting": "[1]", "result": "0.8 and 0.5"}, {"measurement": "remaining activity at 2 µM", "setting": "EGFR(L858R)", "result": 96, "unit": "%"}, {"measurement": "%Ctrl @ 2000nM", "setting": "FLT3(ITD,D835V)", "result": 77, "unit": "%"}, {"measurement": "remaining activity at 2 µM", "setting": "PDGFRB", "result": 100, "unit": "%"}, {"measurement": "remaining activity at 2 µM", "setting": "ROCK1", "result": 88, "unit": "%"}, {"measurement": "remaining activity at 2 µM", "setting": "MST1R", "result": 97, "unit": "%"}, {"measurement": "remaining activity at 2 µM", "setting": "PIM2", "result": 84, "unit": "%"}, {"measurement": "remaining activity at 2 µM", "setting": "ROS1", "result": 89, "unit": "%"}, {"measurement": "remaining activity at 2 µM", "setting": "FAK", "result": 91, "unit": "%"}, {"measurement": "remaining activity at 2 µM", "setting": "TSSK1B", "result": 91, "unit": "%"}, {"measurement": "remaining activity at 2 µM", "setting": "MAST1", "result": 100, "unit": "%"}, {"measurement": "remaining activity at 2 µM", "setting": "RIOK1", "result": 80, "unit": "%"}, {"measurement": "remaining activity at 2 µM", "setting": "INSR", "result": 97, "unit": "%"}, {"measurement": "remaining activity at 2 µM", "setting": "CAMK2A", "result": 96, "unit": "%"}, {"measurement": "remaining activity at 2 µM", "setting": "FGR", "result": 72, "unit": "%"}, {"measurement": "remaining activity at 2 µM", "setting": "NEK11", "result": 100, "unit": "%"}, {"measurement": "proliferation, cell death and apoptosis", "setting": "786-O cells; 4 μM", "result": "induced significant cell proliferation arrest associated with cell death and apoptosis"}, {"measurement": "renal cancer cell death, dose dependent", "setting": "786-O cells; low concentration (<5μM)", "result": "more efficient than CX-4945 and SGC-CK2-1"}, {"measurement": "remaining activity at 2 µM", "setting": "MST3", "result": 100, "unit": "%"}, {"measurement": "remaining activity at 2 µM", "setting": "MYO3B", "result": 100, "unit": "%"}, {"measurement": "remaining activity at 2 µM", "setting": "CDK3", "result": 100, "unit": "%"}, {"measurement": "remaining activity at 2 µM", "setting": "TGFBR2", "result": 90, "unit": "%"}, {"measurement": "remaining activity at 2 µM", "setting": "ERBB4", "result": 97, "unit": "%"}, {"measurement": "remaining activity at 2 µM", "setting": "PKN2", "result": 85, "unit": "%"}, {"measurement": "remaining activity at 2 µM", "setting": "PCTK2", "result": 96, "unit": "%"}, {"measurement": "remaining activity at 2 µM", "setting": "CDK4-cyclinD1", "result": 84, "unit": "%"}, {"measurement": "remaining activity at 2 µM", "setting": "MINK", "result": 100, "unit": "%"}, {"measurement": "remaining activity at 2 µM", "setting": "ULK2", "result": 100, "unit": "%"}, {"measurement": "remaining activity at 2 µM", "setting": "PRKCH", "result": 92, "unit": "%"}, {"measurement": "remaining activity at 2 µM", "setting": "BMPR1A", "result": 77, "unit": "%"}, {"measurement": "remaining activity at 2 µM", "setting": "[2]", "result": 64, "unit": "%"}, {"measurement": "remaining activity at 2 µM", "setting": "CSNK2A2 (CK2α′); read-out: %Ctrl @ 2000nM", "result": 19, "unit": "%"}, {"measurement": "inhibition at 2 µM", "setting": "CSNK2A2 (CK2α′); read-out: inhibition (KINOMEscan profiling)", "result": 81, "unit": "%"}]}
